Source: EP4775575A1, “COMPOUND USED AS CDK4 KINASE INHIBITOR AND USE THEREOF” (TYK Medicines, Inc., priority 2023, dated 2025)
Where two headings read alike, the source gives them in different places.

Experiments:
[1] = Preclinical pharmacokinetic study in rats; assay type: in vivo, Sprague-Dawley (SD) rats; settings: male SD rats, oral gavage (p.o.) 10 mg/kg, plasma; for AUC(0-t) / Cmax / Tmax: rat
Description: Healthy adult Sprague-Dawley (SD) rats, male, 6-8 weeks old, weighing 200-300 g. EDTA-Na2 anticoagulant. Analytical balance, animal weighing scale, magnetic stirrer, refrigerated centrifuge, single-channel manual pipette, etc. About 10 mg of the test sample was precisely weighed, dissolved in a calculated volume of 5% DMSO, followed by addition of 10% solutol HS-15 and 85% normal saline. The mixture was sonicated and vortexed to homogeneity to obtain a solution with a concentration of 1 mg/mL. The solution was freshly prepared before use. Animals were housed in rat cages and fasted overnight (no less than 10 h) before the test, with free access to water. On the day of the test, animals were weighed and marked on the tail. Blank blood samples were collected before administration. The blood was collected via tail vein. • Route of administration: oral gavage (p.o.) • Dose: 10 mg/kg • Dosing volume: 10 mL/kg • Procedure: The rat was held upright with the left hand wearing bite-resistant glove. A 16-gauge gavage needle was inserted through the mouth into the esophagus. The needle was advanced gently without obvious resistance, and the drug solution was injected into the stomach. Whole blood (0.1 mL) were collected from each test animal before administration and at 0.5 […], and 24 h after administration into EDTA-Na2 anticoagulant tubes. The tubes were inverted 3-4 times for mixing, then centrifuged at 10,000 g for 5 min at 4 °C to separate plasma. Plasma samples were stored at -80 °C until analysis. Blood was collected via tail vein. […] The mixture was vortexed for 2 min and centrifuged at 10,000 g for 10 min at 4 °C. Processing of unknown plasma samples: 25 μL of drug-containing rat plasma was transferred, followed by addition of 25 μL of methanol and 200 μL of internal standard solution. The mixture was vortexed for 2 min and centrifuged at 10,000 g for 10 min at 4 °C. The supernatant was collected for LC-MS/MS analysis. A quantitative method for the determination of the test compound was established using a Shimadzu liquid chromatography system coupled with Triple Quad^TM 6500+ AB mass spectrometer. The concentration of the parent drug in plasma was determined. The plasma concentration-time curve was plotted, and the main pharmacokinetic parameters were calculated using a non-compartmental model in winnonlin Phoenix software.

[2] = tested on: Human breast cancer cells MCF-7; test: Cell anti-proliferation assay (MTT), MCF-7; assay type: cell-based; settings: MCF-7 cells, incubated for 5 days
Description: (§1) Human breast cancer cells MCF-7, human ovarian cancer cells A2780, human mantle cell lymphoma cells JEKO-1. DMEM medium (Bio-Channel), DMSO (dimethyl sulfoxide), MTT (thiazolyl blue), 0.25% EDTA-Trypsin (trypsin digestive solution), 1×PBS (phosphate buffered saline, pH 7.2), 96-well plate (Corning), fetal bovine serum (FBS), 10,000 U/mL penicillin-G/streptomycin, high-speed refrigerated centrifuge (EPPENDORF 5810R), and microplate reader (Tecan Spark).
(§2) • A) Tumor cells were cultured in DMEM (high glucose, containing 10% FBS and 100 U/mL penicillin-G/streptomycin) at 37 °C, 5% CO2 and saturated humidity until 80-90% confluence. • B) The medium in the 10 cm culture dish was removed. • C) Cells were rinsed once with 10 mL of 1×PBS. • D) 4 mL of 0.25% EDTA-Trypsin was added, and the cells were digested in a 37 °C, 5% CO2 incubator for 5 minutes. The mixture was transferred to a 15 mL centrifuge tube, centrifuged at 200 g for 5 minutes, and the supernatant was discarded to obtain cell pellet. • E) The cells were resuspended in 4 mL of DMEM medium, counted, and adjusted to 50,000 cells/mL. • F) 100 µL of cell suspension was added to each well of a 96-well plate, and the plate was incubated overnight at 37 °C in a 5% CO2 incubator.
(§3) • A) Gradient dilution solutions of the test compounds were prepared: the test compound was prepared into a 1 mM stock solution. Then 1.5 µL of the stock solution was dissolved in 1.5 mL of DMSO-free medium, followed by 3-fold serial gradient dilution with medium containing 0.1% DMSO to give 9 concentrations.
(§4) • A) The cell culture plate was taken out, and 10 µL of 5 mg/mL MTT was added in a biological safety cabinet; • B) The plate was returned to the incubator and incubated for another 3 hours; • C) The cell culture plate was taken out and the medium was removed, 100 µL of isopropanol (containing 0.4 mM HCl, 0.1% NP-40) was added, and the plate was shaken at room temperature for 30 minutes; • D) The absorbance at 570 nm was measured using a TECAN microplate reader.

[3] = tested on: human mantle cell lymphoma cells JEKO-1; test: Cell anti-proliferation assay (MTT), JEKO-1; assay type: cell-based; settings: JEKO-1 cells, incubated for 5 days
Description: as §1, §2, §3, §4

[4] = tested on: human ovarian cancer cells A2780; test: Cell anti-proliferation assay (MTT), A2780; assay type: cell-based; settings: incubated for 5 days
Description: as §1, §2, §3, §4

CDK6/CyclinD3 = biological target: T1, CDK6/CyclinD3 (Homo sapiens, UniProt Q00534); test: Kinase activity assay (MSA, EZ Reader) against CDK6; assay type: biochemical; settings: CDK6/CyclinD3 5.00 nM, ATP 350 µM, FL-Peptide34, 10mM MgCl2
T1 construct: purchased Carna 04-107
T1 sequence (Q00534 whole entry): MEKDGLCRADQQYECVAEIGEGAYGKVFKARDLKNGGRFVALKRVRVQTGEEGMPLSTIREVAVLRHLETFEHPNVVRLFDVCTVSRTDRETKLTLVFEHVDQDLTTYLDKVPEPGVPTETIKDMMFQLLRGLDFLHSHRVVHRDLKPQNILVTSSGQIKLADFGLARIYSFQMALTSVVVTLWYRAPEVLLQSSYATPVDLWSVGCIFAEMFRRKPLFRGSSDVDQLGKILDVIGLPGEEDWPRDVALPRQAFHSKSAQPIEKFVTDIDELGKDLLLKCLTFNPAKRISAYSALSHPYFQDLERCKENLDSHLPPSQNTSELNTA
T1 sequence (P30281 whole entry partner): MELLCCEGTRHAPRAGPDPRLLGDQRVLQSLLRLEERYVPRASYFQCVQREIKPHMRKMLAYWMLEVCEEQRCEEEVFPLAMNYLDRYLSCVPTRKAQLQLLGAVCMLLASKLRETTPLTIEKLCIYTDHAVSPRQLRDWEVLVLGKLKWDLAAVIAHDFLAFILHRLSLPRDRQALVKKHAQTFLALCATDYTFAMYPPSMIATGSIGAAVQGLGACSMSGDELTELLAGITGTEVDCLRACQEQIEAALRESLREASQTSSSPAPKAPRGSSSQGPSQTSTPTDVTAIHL

SMILES | IC50 ([2]; Homo sapiens, MCF7, 120 h) | IC50 ([3]; Homo sapiens, 120 h) | IC50 ([4]; Homo sapiens, 120 h) | further results
CC(C)n1c(N2CCOC2=O)nc2c(F)cc(-c3nc(N[C@@H]4CCOC[C@H]4O)ncc3C(F)(F)F)cc21 [TB-27] |  |  |  | AUC(0-t) ([1]; Sprague-Dawley): 11500 ng·h/mL; Cmax ([1]; Sprague-Dawley): 1500 ng/mL; Tmax ([1]; Sprague-Dawley): 140 min; HL_ [1]: 3.69 h
C[C@H]1C[C@H](C)n2c(nc3c(F)cc(-c4nc(N[C@@H]5CCOC[C@H]5O)ncc4Cl)cc32)N1C [TB-153] |  |  |  | IC50 ([2]; read-out: MCF7 IC50): ≤ 500 nM; IC50 [3]: ≤ 500 nM; IC50 [4]: ≤ 500 nM
C[C@H]1CCN(c2cc(F)ccc2F)c2nc3c(F)cc(-c4nc(N[C@@H]5CCOC[C@H]5O)ncc4Cl)cc3n21 [TC-16] | ≤ 500 nM | ≤ 500 nM | ≤ 500 nM | 
C[C@H]1CCN(C2CCCC2)c2nc3c(F)cc(-c4nc(N[C@@H]5CCOC[C@H]5O)ncc4Cl)cc3n21 [TA-6] | ≤ 500 nM | 500 to 2000 nM | ≤ 500 nM | 
C[C@H]1CCN(C2COC2)c2nc3c(F)cc(-c4nc(N[C@@H]5CCOC[C@H]5O)ncc4Cl)cc3n21 [TA-30] | > 2000 nM | > 2000 nM | > 2000 nM | 
CN1CCCn2c1nc1c(F)cc(-c3nc(N[C@@H]4CCOC[C@H]4O)ncc3C(F)(F)F)cc12 [TB-41, (3S,4R)-4-((4-(9-fluoro-1-methyl-1,2,3,4-tetrahydrobenzo[4,5]imidazo[1,2-a]pyrimidin-7-yl)-5-(trifluoromethyl)pyrimidin-2-yl)amino)tetrahydro-2H-pyran-3-ol] | 500 to 2000 nM | 500 to 2000 nM | 500 to 2000 nM | 
CCS(=O)(=O)N1CCC(Nc2ncc(Cl)c(-c3cc(F)c4nc5n(c4c3)CCCN5C)n2)CC1 [TB-143, 5-chloro-N-(1-(ethylsulfonyl)piperidin-4-yl)-4-(9-fluoro-1-methyl-1,2,3,4-tetrahydrobenzo[4,5]imidazo[1,2-a]pyrimidin-7-yl)pyrimidin-2-amine] | ≤ 500 nM | ≤ 500 nM | ≤ 500 nM | IC50 (CDK6/CyclinD3): 58.3 nM
CC1CCN(C)c2nc3c(F)cc(-c4nc(N[C@@H]5CCOC[C@H]5O)ncc4Cl)cc3n21 (mixture of isomers) [TB-44, (3S,4R)-4-((5-chloro-4-(9-fluoro-1,4-dimethyl-1,2,3,4-tetrahydrobenzo[4,5]imidazo[1,2-a]pyrimidin-7-yl)pyrimidin-2-yl)amino)tetrahydro-2H-pyran-3-ol] | ≤ 500 nM | ≤ 500 nM | ≤ 500 nM | IC50 (CDK6/CyclinD3): 90.2 nM
CCN1CCCn2c1nc1c(F)cc(-c3nc(N[C@@H]4CCOC[C@H]4O)ncc3Cl)cc12 [TB-109, (3S,4R)-4-((5-chloro-4-(1-ethyl-9-fluoro-1,2,3,4-tetrahydrobenzo[4,5]imidazo[1,2-a]pyrimidin-7-yl)pyrimidin-2-yl)amino)tetrahydro-2H-pyran-3-ol] | 500 to 2000 nM | ≤ 500 nM | ≤ 500 nM | AUC(0-t) ([1]; Sprague-Dawley): 1770 ng·h/mL; Cmax ([1]; Sprague-Dawley): 777 ng/mL; Tmax ([1]; Sprague-Dawley): 30 min; HL_ [1]: 5.32 h
COC(=O)N1CCC(Nc2ncc(Cl)c(-c3cc(F)c4nc5n(c4c3)CCCN5C)n2)CC1 [TB-93, methyl 4-((5-chloro-4-(9-fluoro-1-methyl-1,2,3,4-tetrahydrobenzo[4,5]imidazo[1,2-a]pyrimidin-7-yl)pyrimidin-2-yl)amino)piperidine-1-carboxylate] | 500 to 2000 nM | ≤ 500 nM | ≤ 500 nM | 
C[C@H]1CCN(C2CCC2)c2nc3c(F)cc(-c4nc(N[C@@H]5CCOC[C@H]5O)ncc4Cl)cc3n21 [TA-5] | 500 to 2000 nM | ≤ 500 nM | ≤ 500 nM | 
CN1CCCn2c1nc1c(F)cc(-c3nc(NC4CCN(S(C)(=O)=O)CC4)ncc3Cl)cc12 [TB-43, 5-chloro-4-(9-fluoro-1-methyl-1,2,3,4-tetrahydrobenzo[4,5]imidazo[1,2-a]pyrimidin-7-yl)-N-(1-(methylsulfonyl)piperidin-4-yl)pyrimidin-2-amine] |  |  |  | IC50 ([2]; read-out: MCF7 IC50): ≤ 500 nM; IC50 [3]: ≤ 500 nM; IC50 [4]: ≤ 500 nM
[2H]C([2H])([2H])N1CC[C@H](C)n2c1nc1c(F)cc(-c3nc(N[C@@H]4CCOC[C@H]4O)ncc3Cl)cc12 [TA-28] |  |  |  | IC50 ([2]; read-out: MCF7 IC50): ≤ 500 nM; HL_ [1]: 1.58 h; AUC(0-t) ([1]; in vivo): 2490 ng·h/mL; Cmax ([1]; in vivo): 990 ng/mL; Tmax ([1]; in vivo): 30 min; IC50 [3]: ≤ 500 nM; IC50 [4]: ≤ 500 nM
CC(C)N1CCCn2c1nc1c(F)cc(-c3nc(N[C@@H]4CCOC[C@H]4O)ncc3Cl)cc12 [TB-108, (3S,4R)-4-((5-chloro-4-(9-fluoro-1-isopropyl-1,2,3,4-tetrahydrobenzo[4,5]imidazo[1,2-a]pyrimidin-7-yl)pyrimidin-2-yl)amino)tetrahydro-2H-pyran-3-ol] | ≤ 500 nM | ≤ 500 nM | ≤ 500 nM | AUC(0-t) ([1]; Sprague-Dawley): 1370 ng·h/mL; Cmax ([1]; Sprague-Dawley): 503 ng/mL; Tmax ([1]; Sprague-Dawley): 36 min; HL_ [1]: 1.25 h
C[C@H]1CC(=O)N(C)c2nc3c(F)cc(-c4cc(N[C@@H]5CCOC[C@H]5O)ncc4Cl)cc3n21 [TB-158] | ≤ 500 nM | ≤ 500 nM | ≤ 500 nM | 
C[C@H]1CCN(c2ccccc2C#N)c2nc3c(F)cc(-c4nc(N[C@@H]5CCOC[C@H]5O)ncc4Cl)cc3n21 [TC-18] | ≤ 500 nM | ≤ 500 nM | ≤ 500 nM | 
C[C@H]1CCN([C@H]2C[C@H](O)C2)c2nc3c(F)cc(-c4nc(N[C@@H]5CCOC[C@H]5O)ncc4Cl)cc3n21 [TA-31] |  |  |  | IC50 ([2]; read-out: MCF7 IC50): > 2000 nM; IC50 [3]: ≤ 500 nM; IC50 [4]: 500 to 2000 nM
COc1ccc(CN2CC[C@H](C)n3c2nc2c(F)cc(-c4nc(N[C@@H]5CCOC[C@H]5O)ncc4Cl)cc23)cc1 [TA-8] | ≤ 500 nM | ≤ 500 nM | 500 to 2000 nM | 
C[C@H]1CCN(c2c(F)cccc2F)c2nc3c(F)cc(-c4nc(N[C@@H]5CCOC[C@H]5O)ncc4Cl)cc3n21 [TC-15] | 500 to 2000 nM | 500 to 2000 nM | 500 to 2000 nM | 
C[C@H]1CCN(CC(F)(F)F)c2nc3c(F)cc(-c4nc(N[C@@H]5CCOC[C@H]5O)ncc4Cl)cc3n21 [TA-29] | ≤ 500 nM | ≤ 500 nM | ≤ 500 nM | AUC(0-t) ([1]; Sprague-Dawley): 1490 ng·h/mL; Cmax ([1]; Sprague-Dawley): 506 ng/mL; Tmax ([1]; Sprague-Dawley): 40.2 min; HL_ [1]: 1.60 h
C[C@H]1CCN(CC(F)F)c2nc3c(F)cc(-c4nc(N[C@@H]5CCOC[C@H]5O)ncc4Cl)cc3n21 [TC-6] | 500 to 2000 nM | ≤ 500 nM | ≤ 500 nM | 
C[C@H]1CCN([C@H]2C[C@@H](O)C2)c2nc3c(F)cc(-c4nc(N[C@@H]5CCOC[C@H]5O)ncc4Cl)cc3n21 [TA-42] | > 2000 nM | 500 to 2000 nM | 500 to 2000 nM | 
CN1CCC(C)(C)n2c1nc1c(F)cc(-c3cc(N[C@@H]4CCOC[C@H]4O)ncc3Cl)cc12 [TB-150] | ≤ 500 nM | ≤ 500 nM | ≤ 500 nM | 
C[C@H]1CCN(S(C)(=O)=O)c2nc3c(F)cc(-c4nc(N[C@@H]5CCOC[C@H]5O)ncc4Cl)cc3n21 [TC-8] | > 2000 nM | > 2000 nM | 500 to 2000 nM | 
